Reference: patent publication US6288091A, “Antiherpes virus compounds and methods for their preparation and use” (Boehringer Ingelheim Ltd., priority 1999, dated 2001)

Legend:
[1] = tested on: HCMV (strain AD169); assay: Inhibition of HCMV replication, ELISA assay (Hs-68 cells); assay type: cell-based, Human Cytomegalovirus (HCMV); conditions: read-out: ELISA CMV EC50
Summary of the method: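 Hs-68 fibroblasts at 80–90% confluency infected with HCMV AD169 at MOI 0.01 PFU/cell for 2 h, washed, then cultured 8 days at 37 °C with test compound in DMEM/5% FBS. Late protein p28 detected by ELISA (mAb UL99, HRP/OPD, 450 nm); EC50 from % inhibition of replication.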

[2] = tested on: HCMV (strain AD169); assay: Inhibition of HCMV replication, plaque reduction assay (PRA, Hs-68 cells); assay type: cell-based, Human Cytomegalovirus (HCMV); conditions: read-out: PRA CMV EC50
Summary of the method: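 Hs-68 monolayers (80–90% confluent) were infected with ~50 PFU HCMV AD169 for 2 h at 37°, then given compound in DMEM/5% inactivated FBS, refreshed after 4 days and kept 4 more days. Plaques were counted after formaldehyde fixation and crystal violet staining. EC50 derives from percent plaque reduction versus untreated wells.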

[3] = Human betaherpesvirus 5, AD169, Hs68, Group 1 Table 1 entries
[4] = Human betaherpesvirus 5, AD169, Hs68, Group 1 Table 2 entries
[5] = Human betaherpesvirus 5, AD169, Hs68, Group 1 Table 5 entries
[6] = Human betaherpesvirus 5, AD169, Hs68, Group 1 Table 3 entries

Structure (SMILES) | EC50 [1, 3] | EC50 [2, 3] | also measured
Nc1nc(-c2ccc(NC(=O)CN(CCc3ccccn3)C(=O)C3CCCC3)cc2)cs1 [Example 79] | 3.8 µM | 55 µM | –
C[C@@H](c1ccccc1)N(CCC(=O)Nc1ccc(-c2csc(N)n2)cc1)C(=O)OC(C)(C)C [Example 18] | – | – | EC50 [1, 4]: 2.9 µM; EC50 [2, 4]: 3.3 µM
Nc1nc(-c2ccc(NC(=O)CCN(C(=O)c3cccnc3)C3Cc4ccccc4C3)cc2)cs1 [Example 12] | – | – | EC50 [1, 4]: 6.5 µM; EC50 [2, 4]: 8 µM
Nc1nc(-c2ccc(NC(=O)CN(Cc3ccccc3)C(=O)Cc3ccccc3)cc2)cs1 [Example 26] | 1.8 µM | 15 µM | –
Nc1nc(-c2ccc(NC(=O)CCNCc3ccccc3)cc2)cs1 [Example 1] | – | – | EC50 [1, 4]: 3.2 µM; EC50 [2, 4]: 30 µM
CC(C)(C)OC(=O)N(CCC(=O)Nc1ccc(-c2csc(N)n2)cc1)CC1CCCCC1 [Example 21] | – | – | EC50 [1, 4]: 4.2 µM; EC50 [2, 4]: 6.5 µM
C[C@@H](c1ccccc1)N(CC(=O)Nc1ccc(-c2csc(N)n2)cc1)C(=O)c1ccncc1 [Example 58] | 5.2 µM | 30 µM | –
Nc1nc(-c2ccc(NC(=O)CN(CCc3ccccn3)C(=O)C3CCCCC3)cc2)cs1 [Example 50] | 1.6 µM | 13 µM | –
C[C@H](NCCC(=O)Nc1ccc(-c2csc(N)n2)cc1)c1ccccc1 [Example 20] | – | – | EC50 [1, 4]: 0.8 µM; EC50 [2, 4]: 13 µM
CCC(CC)C(=O)N(CC(=O)Nc1ccc(-c2csc(N)n2)cc1)Cc1ccccc1 [Example 104] | 1.9 µM | > 18 µM | –
C[C@H](NCC(=O)Nc1ccc(-c2csc(N)n2)cc1)c1ccccc1 [Example 10] | 2.2 µM | > 30 µM | –
Nc1nc(-c2ccc(NC(=O)CCN(Cc3ccccc3)C(=O)OCc3ccccc3)cc2)cs1 [Example 16] | – | – | EC50 [1, 4]: 7 µM; EC50 [2, 4]: 8 µM
Nc1nc(-c2ccc(NC(=O)CN(Cc3ccccc3)C(=O)c3cccs3)cc2)cs1 [Example 32] | 5.4 µM | 8.5 µM | –
CC(C)(C)OC(=O)N[C@H](Cc1ccccc1)C(=O)Nc1ccc(-c2csc(N)n2)cc1 [Example 4] | – | – | EC50 [1, 5]: 0.25 µM; EC50 [2, 5]: 22 µM
CN(CC(=O)Nc1ccc(-c2csc(N)n2)cc1)C(=O)c1ccncc1 [Example 22] | 110 µM | 110 µM | –
Nc1nc(-c2ccc(NC(=O)[C@@H](Cc3ccccc3)N(Cc3ccccc3)C(=O)C3CCCCC3)cc2)cs1 [Example 9] | – | – | EC50 [1, 5]: 4 µM; EC50 [2, 5]: 8.7 µM
O=C(CN(Cc1ccccc1)C(=O)C1CCCCC1)Nc1ccc(-c2cscn2)cc1 [Example 5] | – | – | EC50 [1, 6]: > 63 µM; EC50 [2, 6]: 16 µM
Nc1nc(-c2ccc(NC(=O)CN(Cc3ccccc3)C(=O)c3cccnc3)cc2)cs1 [Example 28] | 4.6 µM | 35 µM | –
Nc1nc(-c2ccc(NC(=O)CCN(Cc3ccccc3)Cc3ccccc3)cc2)cs1 [Example 2] | – | – | EC50 [1, 4]: 0.55 µM; EC50 [2, 4]: 4.7 µM
CC(C)(C)CN(CC(=O)Nc1ccc(-c2csc(N)n2)cc1)C(=O)C1CCCCC1 [Example 80] | 9.5 µM | 9.5 µM | –

Structure (SMILES) | EC50 [1, 3] | EC50 [2, 3] | also measured
Nc1nc(-c2ccc(NC(=O)CN(CCc3ccccc3)C(=O)C3CCCC3)cc2)cs1 [Example 66] | 0.35 µM | > 10 µM | –
CCCC(CCC)NCCC(=O)Nc1ccc(-c2csc(N)n2)cc1 [Example 23] | – | – | EC50 [1, 4]: 4 µM; EC50 [2, 4]: > 9 µM
Nc1nc(-c2ccc(NC(=O)CN(Cc3ccc(F)cc3)C(=O)c3ccncc3)cc2)cs1 [Example 84] | 5.6 µM | 37 µM | –
CC(C)(C)OC(=O)N[C@@H](Cc1ccccc1)C(=O)Nc1ccc(-c2csc(N)n2)cc1 [Example 3] | – | – | EC50 [1, 5]: 0.14 µM; EC50 [2, 5]: 24 µM
CN(C)CCN(CC(=O)Nc1ccc(-c2csc(N)n2)cc1)C(=O)C1CCCCC1 [Example 140] | 1.4 µM | 29 µM | –
CC(C)(C)OC(=O)N(CCC(=O)Nc1ccc(-c2csc(N)n2)cc1)C1Cc2ccccc2C1 [Example 14] | – | – | EC50 [1, 4]: 0.2 µM; EC50 [2, 4]: > 28 µM
Nc1nc(-c2ccc(NC(=O)[C@H](Cc3ccccc3)NCc3ccccc3)cc2)cs1 [Example 6] | – | – | EC50 [1, 5]: 0.14 µM; EC50 [2, 5]: 7 µM
CC(C)c1nc(-c2ccc(NC(=O)CN(Cc3ccccc3)C(=O)c3ccccc3)cc2)cs1 [Example 20] | – | – | EC50 [1, 6]: 3.3 µM; EC50 [2, 6]: 70 µM
Nc1nc(-c2ccc(NC(=O)CN(Cc3ccccc3)C(=O)C3CCCCC3)cc2)cs1 [Example 34] | 1 µM | 15 µM | –
Nc1nc(-c2ccc(NC(=O)CN(CC3CCCCC3)C(=O)Cc3ccccc3)cc2)cs1 [Example 77] | 6.1 µM | 7.5 µM | –
Nc1nc(-c2ccc(NC(=O)CNCc3ccccc3)cc2)cs1 [Example 1] | 25 µM | > 60 µM | –
CCCC(CCC)N(CC(=O)Nc1ccc(-c2csc(N)n2)cc1)C(=O)C1CCCCC1 [Example 82] | 8.1 µM | 7 µM | –
Nc1nc(-c2ccc(NC(=O)CN(CC3CCCCC3)C(=O)C3CCNCC3)cc2)cs1 [Example 62] | 2.2 µM | 38 µM | –
CC(C)(C)CC(=O)N(CC(=O)Nc1ccc(-c2csc(N)n2)cc1)Cc1ccccc1 [Example 42] | 6 µM | 20 µM | –
C[C@@H](c1ccccc1)N(CCC(=O)Nc1ccc(-c2csc(N)n2)cc1)Cc1ccccc1 [Example 19] | – | – | EC50 [1, 4]: 3.1 µM; EC50 [2, 4]: 4 µM
Nc1nc(-c2ccc(NC(=O)CN(Cc3ccccc3)C(=O)c3ccncc3)cc2)cs1 [Example 29] | 12 µM | 27 µM | –
Nc1nc(-c2ccc(NC(=O)CN(CC3CCCCC3)C(=O)C3CCCC3)cc2)cs1 [Example 63] | 2.2 µM | > 21 µM | –
Nc1nc(-c2ccc(NC(=O)CN(Cc3cccnc3)C(=O)C3CCCCC3)cc2)cs1 [Example 48] | 5 µM | 49 µM | –
CC(C)(C)OC(=O)N(CC(=O)Nc1ccc(-c2csc(N)n2)cc1)Cc1ccncc1 [Example 90] | 3.5 µM | 88 µM | –
Nc1nc(-c2ccc(NC(=O)CN(Cc3ccccc3)C(=O)CC3CCCC3)cc2)cs1 [Example 39] | 6.1 µM | 8.5 µM | –

Structure (SMILES) | EC50 [1, 3] | EC50 [2, 3] | also measured
Nc1nc(-c2ccc(NC(=O)CCNC3Cc4ccccc4C3)cc2)cs1 [Example 10] | – | – | EC50 [1, 4]: 7.5 µM; EC50 [2, 4]: 14 µM
Nc1nc(-c2ccc(NC(=O)CN(CC3CCCCC3)C(=O)c3ccccc3)cc2)cs1 [Example 60] | 3 µM | – | EC50 ([2]; Group 1 Table 1 entries): 15 µM
Nc1nc(-c2ccc(NC(=O)CN(Cc3ccncc3)C(=O)C3CCCCC3)cc2)cs1 [Example 49, N-{2-{{4-(2-amino-4-thiazolyl)phenyl}amino}-2-oxoethyl}-N-(4-pyridinylmethyl)cyclohexanecarboxamide] | 25 µM | 23 µM | –
CC(=O)Nc1nc(-c2ccc(NC(=O)CN(Cc3ccccc3)C(C)=O)cc2)cs1 [Example 18] | – | – | EC50 [1, 6]: 2.8 µM; EC50 [2, 6]: > 81 µM
CC(C)(C)NC(=S)N(CC(=O)Nc1ccc(-c2csc(N)n2)cc1)Cc1ccccc1 [Example 93] | 0.25 µM | > 24 µM | –
CC(C)(C)OC(=O)NCC(=O)N(CC(=O)Nc1ccc(-c2csc(N)n2)cc1)Cc1ccccc1 [Example 72] | 7.5 µM | 24 µM | –
CC(C)C(=O)N(CC(=O)Nc1ccc(-c2csc(N)n2)cc1)Cc1ccccc1 [Example 43] | 25 µM | 13 µM | –
Nc1nc(-c2ccc(NC(=O)CCN(Cc3ccccc3)CC3CCCCC3)cc2)cs1 [Example 17] | – | – | EC50 [1, 4]: 4.7 µM; EC50 [2, 4]: > 5 µM
Nc1nc(-c2ccc(NC(=O)CN(Cc3ccccc3)C(=O)Cc3ccccn3)cc2)cs1 [Example 31] | 1.3 µM | 8.1 µM | –
CC(C)(C)OC(=O)N(CCC(=O)Nc1ccc(-c2csc(N)n2)cc1)Cc1ccccc1 [Example 15] | – | – | EC50 [1, 4]: 11.3 µM; EC50 [2, 4]: 9 µM
C[C@@H](NCCC(=O)Nc1ccc(-c2csc(N)n2)cc1)c1ccccc1 [Example 25] | – | – | EC50 [1, 4]: 1 µM; EC50 [2, 4]: > 6 µM
Nc1nc(-c2ccc(NC(=O)CN(Cc3ccccc3)C(=O)c3cc[n+]([O-])cc3)cc2)cs1 [Example 30] | 77 µM | > 88 µM | –
CC(=O)N(CC(=O)Nc1ccc(-c2csc(N)n2)cc1)Cc1ccccc1 [Example 44] | 16 µM | 37 µM | –
C[C@H](c1ccccc1)N(CC(=O)Nc1ccc(-c2csc(N)n2)cc1)C(=O)C1CCCCC1 [Example 52] | 1.3 µM | 6 µM | –
Nc1nc(-c2ccc(NC(=O)CCNCc3cccc(F)c3)cc2)cs1 [Example 4] | – | – | EC50 [1, 4]: 6.6 µM; EC50 [2, 4]: > 3.7 µM
Nc1nc(-c2ccc(NC(=O)CN(Cc3ccccc3)Cc3ccccc3)cc2)cs1 [Example 16] | 3.8 µM | 13 µM | –
Nc1nc(-c2ccc(NC(=O)CCNCC3CCCCC3)cc2)cs1 [Example 22] | – | – | EC50 [1, 4]: 4.8 µM; EC50 [2, 4]: > 6 µM
CN(C)c1nc(-c2ccc(NC(=O)CN(Cc3ccccc3)C(=O)c3ccccc3)cc2)cs1 [Example 11] | – | – | EC50 [1, 6]: 3.5 µM; EC50 [2, 6]: 18 µM
Nc1nc(-c2ccc(NC(=O)CN(Cc3ccccc3)C(=O)c3cnccn3)cc2)cs1 [Example 33] | 28.2 µM | 20 µM | –
Nc1nc(-c2ccc(NC(=O)CCN(Cc3ccccc3)C(=O)C3CCCCC3)cc2)cs1 [Example 8] | – | – | EC50 [1, 4]: 8.6 µM; EC50 [2, 4]: 13 µM
